Entries after “also recorded” stand apart in the source; their conditions may differ.
Columns and labels:
[1] = system: senile plaques and diffuse plaques (amyloid β-protein) in brain sections; test: Staining of senile plaques and diffuse plaques in brain sections of an Alzheimer's disease patient; parameters: species or system human; settings: for staining properties in sections of the brain of a patient with Alzheimer's disease (senile plaques): 100 μM compound in 50% ethanol, compared with thioflavin S or anti-Aβ antibody 6F/3D on adjacent section; for staining of diffuse plaques in sections of the brain of a patient with Alzheimer's disease: 100 μM compound, diffuse plaques stained with anti-Aβ antibody 6F/3D on adjacent section
Excerpt: (§1) The following explanation is made about testing of staining properties of the compounds of the present invention on brain sections of an Alzheimer's disease patient.
(§2) (1) Temporal lobe or hippocampus specimens of the brain of a patient who had been definitely diagnosed pathologically as Alzheimer's disease and of a normal aged individual were used. These specimens were provided from Fukushimura Hospital, our joint research facility, with the consent to their use for research purpose received from the bereaved family of the patient (BF Research Laboratories Institutional Ethics Board Permission No. RS-99-02).
(§3) (2) The brain tissues embedded in paraffin were sliced 6 or 8 μm thick, extended on slides, and dried. The paraffin-embedded brain sections were deparaffined by washing sequentially with xylene (10 minutes, twice), 100% ethanol (15 minutes, twice), 95% ethanol (15 minutes, twice), and a stream of water (10 minutes).
(§4) (3) Pre-treatment for staining with compounds of the present invention involved treating the sections for eliminating self-fluorescence due to lipofuscin. First, the deparaffined sections were immersed into a 10% formalin solution for 60 minutes and washed with PBS for 5 minutes, followed by immersion into a 0.25% solution of KMnO4 for 90 minutes. After washing twice with PBS for 2 minutes each, the sections were immersed into a solution of 0.1% K2S2O5/oxalic acid for about 30 seconds each, and then washed three times with PBS for 2 minutes each.
(§5) (4) About 150 μl of a 100 μM solution of a compound of the present invention dissolved in 50% ethanol was added dropwise onto the sections and allowed the reaction to be carried out for 10 minutes. The sections were dipped into tap water five times, and then 50% ethanol three to five times, followed by immediate classification. After that, the sections were immersed into PBS for 60 minutes, enclosed with Fluor Save Reagent (Calbiochem), and examined under a fluorescent microscope (Nikon, Eclips E800) . Pictures were taken using a digital camera (Plaroid PDMCII).
Immunostaining was carried out as follows.
(a) Procedures for Immunostaining Amyloid β-Protein:
(1) After the sections were deparaffined, the sections were washed twice in distilled water for 2 minutes each, and tissues were marked with an Immunopen. About 150 μl of formic acid was added dropwise and allowed to stand at room temperature for 5 minutes. The sections were washed with tap water for 5 minutes and immersed into cold PBS-Tween 20 for 2 minutes, and then about 150 μl of a 0.05% trypsin solution was added dropwise and allowed the reaction to be carried out at 37° C. for 15 minutes.
(2) In an ice bath, the sections were washed twice with cold PBS-Tween 20 for 5 minutes each, and two drops of blocking serum were added and allowed the reaction to be carried out at 37° C. for 15 minutes. Excess water was removed, and about 150 μl of 6F/3D, an antibody specific to amyloid β-protein (DAKO; diluted 1:50) was added dropwise and allowed the reaction to be carried out at 37° C. for 1 hour.
(3) Further, after washing five times with cold PBS-Tween 20 for 2 minutes each, two drops of a solution of goat anti-mouse IgG (H+L) conjugated to biotin were added and allowed the reaction to be carried out at 37° C. for 1 hour. After that, the sections were washed three times with cold PBS-Tween 20 for 2 minutes each, and two drops of ABS solution (a streptavidin-biotin-peroxidase complex solution) were added and allowed to stand for 30 minutes. The sections were again washed three times with cold PBS-Tween 20 for 2 minutes each, and about 150 μl of DAB solution (prepared by dissolving 10 mg of DAB in 20 ml of 0.05 mol/l Tris-HCl buffer and adding 100 μl of 3% hydrogen peroxide immediately before use) were added and allowed the color to be developed sufficiently. Then, the sections were washed with distilled water for 1 minute to stop the reaction, enclosed, and examined under a microscope.

[2] = Blood-brain barrier permeability after intravenous administration; format: in vivo; settings: Slc:ICR, mouse, not told; mice, two minutes after intravenous administration; read-out: content in Brain (blood-brain barrier permeability)
Excerpt: (B) Testing of Blood-Brain Barrier Permeability

[3] = Acute toxicity testing by intravenous administration; format: in vivo; settings: male Crj:CD1 mice, observed up to 7 days
Description: (A) Testing of Acute Toxicity
Acute toxicity of the inventive compounds was determined employing mice by intravenous administration. Male Crj:CD1 mice were used and divided into groups of 4 mice, with an average weight of each group of 31-32 g. […] Up to 7 days after administration, observations were made.

[4] = system: neurofibrillary tangles (tau protein) in brain sections; test: Neurofibrillary tangles staining in brain sections of an Alzheimer's disease patient; parameters: species or system human; settings: for specificity of staining to tau protein / neurofibrillary tangles: compared with thioflavin S (FIG. 17)
Excerpt: as §1, §2, §3, §4, §5
(b) Procedures for Immunostaining Neurofibrillary Tangles:
(1) Immunostaining of neurofibrillary tangles was carried out as follows. After the sections were deparaffined, the sections were washed twice with distilled water for 2 minutes each, tissues were marked with an Immunopen. About 150 μl of 3% hydrogen peroxide (diluted in methanol) was added dropwise and allowed to stand at room temperature for 10 minutes.
(2) The sections were washed twice with cold PBS-Tween 20 for 5 minutes each, and two drops of blocking serum were added and allowed the reaction to be carried out at 37° C. for 30 minutes. Excess water was removed, and two drops of pSer422, an antibody specific to phosphorylated tau (Wako Phosphorylated Tau Immunohistostain Kit 299-57301) and allowed the reaction to be carried out overnight at 4° C.
(3) On the next day, the sections were washed five times with cold PBS-Tween 20 for 2 minutes each, and two drops of a solution of goat anti-rabbit IgG conjugated to biotin were added and allowed the reaction to be carried out at 37° C. for 1 hour. After that, the sections were washed three times with cold PBS-Tween 20 for 2 minutes each, and two drops of ABS solution (a streptavidin-biotin-peroxidase complex solution) were added and allowed to stand for 30 minutes.
(4) The sections were again washed three times with cold PBS-Tween 20 for 2 minutes each, and about 150 μl of DAB solution (prepared by dissolving 10 mg of DAB in 20 ml of 0.05 mol/l Tris-HCl buffer and adding 100 μl of 3% hydrogen peroxide immediately before use) were added and allowed the color to be developed sufficiently. Then, the sections were washed with distilled water for 1 minute to stop the reaction, enclosed, and examined under a microscope. The blocking serum, the solution of goat anti-rabbit IgG conjugated to biotin, and the ABC solution used were those contained in a Phosphorylated Tau Immunohistostain Kit (Wako 299-57301).

Clearance from the brain = settings: in vivo

Row | Compound | staining properties in sections of the brain of a patient with Alzheimer's disease (senile plaques) [1] | specificity of staining to tau protein / neurofibrillary tangles [4] | also measured
1 | CNc1ccc(/C=C/C=C/c2nc3ccccc3o2)cc1 [BF-185, 2-[[4-(4-methylamino)phenyl]-1,3-butadienyl)benzoxazole] | mainly stains senile plaques | – | staining of diffuse plaques in sections of the brain of a patient with Alzheimer's disease [1]: stains; also recorded: display affinity also for diffuse plaques and provide their clear staining; tissue uptake at 2 min [2]: 3.9 %ID/g; Maximum Tolerated Dose [3]: ≧10 mg/kg
2 | CNc1ccc(/C=C/C=C/c2nc3ccccc3s2)cc1 [BF-187, 2-[[4-(4-methylamino)phenyl]-1,3-butadienyl)benzothiazole] | stains senile plaques | – | tissue uptake at 2 min [2]: 3.6 %ID/g; Maximum Tolerated Dose [3]: ≧10 mg/kg
3 | CNc1ccc(/C=C/C=C/c2nc3ccccc3[nH]2)cc1 [BF-188, 2-[[4-(4-methylamino)phenyl]1,3-butadienyl]benzoimidazole] | stains senile plaques | – | tissue uptake at 2 min [2]: 4.8 %ID/g
4 | CNc1ccc(/C=C/C=C/C=C/c2ccc3ccccc3n2)cc1 [BF-189, 1-(4-methylaminophenyl)-6-(2-quinolyl)-1,3,5-hexatrien] | stains senile plaques | – | –
5 | CN(C)c1ncc(/C=C/c2nc3ccccc3s2)s1 [BF-196, 2-[2-(2-dimethylaminothiazol-5-yl)ethenyl]benzothiazole] | mainly stains senile plaques | – | –
6 | CN(C)c1ncc(/C=C/c2nc3ccccc3o2)s1 [BF-197, 2-[2-(2-dimethylaminothiazol-5-yl)ethenyl]benzoxazole] | mainly stains senile plaques | – | –
7 | Nc1ccc(/C=C/C=C/c2nc3ccc(O)cc3o2)c(O)c1 [BF-201] | stains senile plaques | – | MTD at 7 days ([3]; mouse, in vivo, read-out: Maximum Tolerated Dose): ≥ 10 mg/kg
8 | Cc1nc(/C=C/c2cnc(N(C)C)s2)oc1C [BF-214, 2-(dimethylamino)-5-[2-(4,5-dimethyloxazol-2-yl)ethenyl]thiazole] | stains senile plaques | – | –
9 | CN(C)c1ncc(-c2ccc3ccccc3n2)o1 [BF-221, 2-(2-dimethylaminooxazol-5-yl)quinoline] | – | high specificity to tau protein | staining of phosphorylated tau protein recognized by antibody pSer422 ([4]; adjacent section immunostained with pSer422 (FIG. 18)): stained phosphorylated tau protein
10 | CN(C)c1ncc(-c2nc3ccccc3o2)s1 [BF-225, 2-(2-dimethylaminothiazol-5-yl)benzoxazole] | – | – | Maximum Tolerated Dose [3]: ≧10 mg/kg
11 | CN(C)c1ncc(/C=C/c2nc3ccc(OCCF)cc3o2)s1 [BF-227, 2-[2-(2-dimethylaminothiazol-5-yl)ethenyl]-6-(2-fluoroethyloxy)benzoxazole] | mainly stains senile plaques | – | staining of diffuse plaques in sections of the brain of a patient with Alzheimer's disease [1]: stains; also recorded: display affinity also for diffuse plaques and provide their clear staining; clearance from the brain (Clearance from the brain): rapid clearance from the brain
12 | Nc1ncc(-c2ccc3ccccc3n2)o1 [BF-239, 2-(2-aminooxazol-5-yl)quinoline] | – | high selectivity to neurofibrillary tangles | –
13 | Nc1ncc(-c2ccc3ccccc3n2)s1 [BF-240, 2-(2-aminothiazol-5-yl)quinoline] | – | high selectivity to neurofibrillary tangles | –
14 | Nc1cnc(-c2ccc3ccccc3n2)o1 [BF-255] | – | high selectivity to neurofibrillary tangles | –
15 | O=C(O)c1cc(/C=C/c2ccc(/C=C/c3ccc(O)c(C(=O)O)c3)c(Br)c2)ccc1O [BSB, reference compound] | stains both senile plaques and neurofibrillary tangles | – | –
16 | thioflavin S [reference compound] | stains both senile plaques and neurofibrillary tangles | provided enough staining of proteins other than tau protein | –

Source: US20060018825A1, “Probe for diseases with amyloid accumulation, amyloid-staining agent, remedy and preventive for diseases with amyloid accumulation and diagnostic probe and staining agent for neurofibrillary change” (BF RESEARCH INSTITUTE, INC., priority 2003, published 2006)
